In patent US20240165196A1, “Beta-Lactamase Inhibitors” (VIB VZW, priority 2021, published 2024):
Ends that are not written are not given here.

Tests used:
strain containing NDM5a = assay: checkerboard assay (FICI), peptide and penicillin; type: cell-based, E. coli
From the text: (§1) FIGS. 4A-4K. […] IV—Intravenous, IP—Intraperitoneal, SC—Subcutaneously. The data shown is from a single experiment with 4 animals per group. […] (ns—non significant, #—P>0.05, *—P≤0.05, ***—P≤0.01, ****—P≤0.001). (FIG. 4G) FICI plot as in FIG. 2, for the E. coli strains indicated and the combination of penicillin and the TEM3.2 peptide. […] (FIG. 4J) Same as FIG. 4H for peptide BGAL. (FIG. 4K) Same as FIG. 4H for peptide P33.
(§2) As we wondered about the generality of our peptide design approach, we set out to design a peptide to inactivate a structurally unrelated beta-lactamase. To this end we turned to the Ambler class B beta-lactamase NDM-1 that confers resistance to many beta-lactam antibiotics, including carbapenems, and strains carrying this enzyme was soon dubbed ‘superbugs’ that are only partially sensitive to colistin and tigecycline^49. This enzyme was first isolated from a patient in 200850, by 2010 could be detected in clinical isolates throughout the UK and India^51 and by 2015 was detected in over 70 countries worldwide^52.
(§3) For the analysis of the synergy between the peptides with other antibiotics, a checkerboard assay was performed. Referring to the MICs of the selected peptides, checkerboard assay was designed to define their FICIs (Fractional Inhibitory Concentration Index) in combinations against different clinical isolates^62,63. Briefly, a total volume of 100 μL of Mueller-Hinton broth was distributed into each well of the 96-well plates. The first compound (peptide) of the combination was serially diluted vertically (128, 64, 32, 16, 8, 4, 2, 0 μg/mL) while the other drug (Beta-lactam or Kanamycin) was diluted horizontally in 96 well plate (from 3200 to 3 μg/mL). The total volume of each microtiter well was inoculated with 100 μL of MHB containing 1×10^6 CFU/mL bacteria. The plates were incubated at 37° C. for 24 h under aerobic conditions without shaking. Calculation of the FICI is used to analyze the results of the checkerboard assay by estimating the degree of synergistic effect. FICI is calculated as the sum of the individual fractional inhibitory concentrations (FICs) for each drug (where MIC A and MIC B denote the MIC of each drug alone, and MIC AA+B and MIC BA+B denote the concentrations of A and B in the drug combination). FICI=(MIC AA+B/MIC A)+(MIC BA+B/MIC B). With FICI≤0.5, the combination of antibiotics considered as a synergistic effect, 0.5<FICI≤1 indicates additivity, FICI>1 indicates indifference.

strain containing NDM5b = assay: checkerboard assay (FICI), peptide and penicillin; type: cell-based, E. coli
From the text: as §1, §2, §3

strain containing TEM-1 = assay: checkerboard assay (FICI), peptide and penicillin; type: cell-based, E. coli; conditions: strain TEM-1
From the text: as §1, §2, §3

E. coli SHV-11 = assay: checkerboard assay (FICI), peptide versus penicillin G; type: cell-based; conditions: strain with SHV-11; FICI below 0.5 = synergy
From the text: (§4) FIGS. 2A-2M. (FIG. 2A) TEM mutations and their effects on stability (total energy) as predicted by FoldX. […] Dashed line indicates a total energy difference of 0.5 kcal/mol, the FoldX cut-off above which mutations are considered to be destabilizing. (FIG. 2B) Barplot mapping mutations in (FIG. 2A) to the TEM sequence and indicating occurrence. […] The bar heights correspond to the number of times a mutation occurs across different TEM variants (right-hand y-axis). The color coding is identical to that in (FIG. 2A). Red line indicates the TANGO scores (indicated on the left-hand y-axis), with peaks corresponding to APRs. (FIG. 2C) Mapping of mutations in (FIG. 2A) and (FIG. 2B) to the TEM structure (pdb 1xpb). Protein surface is shown in gray, color coding of mutations is identical to (FIG. 2A) and (FIG. 2B). (FIGS. 2D, 2E, and 2F) Temperature-dependent evolution of the Right-Angle Light Scattering (RALS) intensity during a temperature ramp, similar as in FIG. 1F for key mutants of TEM1, namely TEM-10 (FIG. 2D), TEM-30 (FIG. 2E) and TEM-155 (FIG. 2F). Experiments were shown in triplicate, single repeat is shown. (FIG. 2G) Schematic representation of the structure of the peptides. APR—Aggregation Prone Region, R—Arginine. (FIG. 2H) Ribbon representation of the superposition of the crystal structures of TEM (green, pdb id 1bt5) and SHV (blue, pdb id 1shv). The catalytic site of the beta-lactamase activity is indicated and location of APR3 is shown in red. (FIG. 2I) TANGO aggregation score and alignment of APR3 in TEM and SHV. (FIG. 2J) Fractional Inhibitory Concentration Index determination of 5 peptides versus penicillin on E. coli TEM-104. […] FICI values below 0.5 indicate synergy. Values between 0.5 and 1.0 indicate additivity and values greater than 1 indicate indifference between the combined substances. (FIG. 2K) Same as J for E. coli SHV-11. (FIG. 2L) Same as J for a kanamycin resistant E. coli strain. (FIG. 2M) FICI values for the TEM3.2 peptide on a range of E. coli strains.
(§5) Moreover, the core sequence of peptide TEM3.0 also occurs in the structurally related SHV β-lactamase ([…]). Although the C-terminal extension residues H and N have been replaced with physicochemically similar R and Q, respectively (FIG. 2H). […] To quantify the synergy between these four peptides and penicillin G, we performed a so-called checkerboard assay, which allows to compare the activity of two test compounds co-incubated (here peptide and a beta-lactam antibiotic), to their individual activities in isolation. The result from the assay is quantified as the Fractional Inhibitory Concentration Index (FICI), and it is generally accepted that values below 0.5 indicate synergistic effects between the compounds. As a control, we generated a peptide using the same design, but based on a previously identified APR from the β-galactosidase enzyme (BGAL)^16 from E. coli (APR=SVIIWSL, peptide sequence=[…]) that has a MIC value>100 μg/mL on E. coli strain UZ_TEM104. We evaluated the synergy of the peptides with penicillin G in clinical E. coli isolates carrying the TEM ([…]) or SHV enzymes ([…]). […] As a further control, we also performed a checkerboard assay with an E. coli strain that was resistant to the aminoglycoside kanamycin and observed no synergy between this unrelated antibiotic and our peptides (FIG. 2L), in line with the notion that we are inhibiting a beta-lactamase but not the aminoglycoside degrading enzyme. […] The list of strains included some that harbored only TEM or SHV, but others contained additional Ambler Class A (CTX-M or […]) or Class B (VIM and NDM) beta-lactamases. […] In contrast, the presence of the NDM-type […], that does have a high affinity for Ampicillin and that is completely distinct in sequence and structure from TEM and SHV, seemed to completely prevent the effect of the peptide on the beta-lactam sensitivity of the strains in which it occurred (see also further). […]

E. coli TEM-104 = assay: as above; type: cell-based; conditions: strain with TEM; FICI below 0.5 = synergy
From the text: as §4, §5

Row | Sequence | synergy with penicillin (FICI) (strain containing NDM5a) | synergy with penicillin (FICI) (strain containing NDM5b) | synergy with penicillin (FICI) (strain containing TEM-1) | synergy with penicillin G (FICI) (E. coli SHV-11) | synergy with penicillin G (FICI) (E. coli TEM-104)
1 | RLAAALMLRRPRAQILNWIRR (NDM1-2) | synergy | synergy | not in a strain containing TEM-1 | – | –
2 | RSVIIWSLGRRPRSVIIWSLGRR [BGAL] | neither showed synergy | neither showed synergy | neither showed synergy | no synergy | no synergy
3 | RTAQILNWRRPRTAQILNWRR (NDM1-1) | synergy | synergy | not in a strain containing TEM-1 | – | –
